Article PMC8002023, “3D Pharmacophore-Based Discovery of Novel KV10.1 Inhibitors with Antiproliferative Activity” (Cancers, 2021)

Molecular target: T1, KV10.1 (Homo sapiens, UniProt O95259)
T1 construct: expressed in transfected cells
T1 sequence (O95259 1-962 isoform O95259-2): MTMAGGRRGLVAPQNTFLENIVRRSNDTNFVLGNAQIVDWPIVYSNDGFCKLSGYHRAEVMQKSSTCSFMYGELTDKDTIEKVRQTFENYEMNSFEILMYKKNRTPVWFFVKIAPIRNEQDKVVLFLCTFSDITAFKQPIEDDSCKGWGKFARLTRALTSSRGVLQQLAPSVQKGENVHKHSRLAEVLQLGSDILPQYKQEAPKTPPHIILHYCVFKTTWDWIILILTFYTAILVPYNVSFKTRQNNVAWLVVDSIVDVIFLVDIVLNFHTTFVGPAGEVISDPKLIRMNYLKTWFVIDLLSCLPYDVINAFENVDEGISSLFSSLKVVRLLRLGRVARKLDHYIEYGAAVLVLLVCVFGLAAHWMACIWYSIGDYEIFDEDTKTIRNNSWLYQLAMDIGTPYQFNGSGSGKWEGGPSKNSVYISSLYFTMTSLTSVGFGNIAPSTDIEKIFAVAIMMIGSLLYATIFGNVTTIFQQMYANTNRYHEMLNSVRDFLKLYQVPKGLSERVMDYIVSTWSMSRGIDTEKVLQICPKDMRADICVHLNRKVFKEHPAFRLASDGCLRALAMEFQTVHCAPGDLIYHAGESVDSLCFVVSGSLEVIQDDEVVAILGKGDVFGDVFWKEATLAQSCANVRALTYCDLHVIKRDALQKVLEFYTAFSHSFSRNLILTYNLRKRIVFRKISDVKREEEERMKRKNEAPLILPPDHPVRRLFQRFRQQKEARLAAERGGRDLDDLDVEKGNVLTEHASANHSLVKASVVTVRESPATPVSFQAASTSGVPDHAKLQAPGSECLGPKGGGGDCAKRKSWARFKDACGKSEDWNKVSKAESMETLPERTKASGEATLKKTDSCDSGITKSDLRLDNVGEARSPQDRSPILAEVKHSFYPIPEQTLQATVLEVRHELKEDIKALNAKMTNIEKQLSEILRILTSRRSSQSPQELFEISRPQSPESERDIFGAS
Experiment: Whole-cell patch clamp on HEK-293 cells stably expressing KV10.1
Format: cell-based
Conditions: HEK293; 10 μM; mean ± standard error (or range)

## O=[N+]([O-])c1cc(C(F)(F)F)ccc1Nc1ccc(OCC(O)CN2CCOCC2)cc1 (stereo not shown) [Compound 8]
  inhibition at 10 µM: 81.2 ± 4.97%
